Results: PubChem BioAssay (NCI)
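Briefly, cells in 96-well plates were exposed to five compound concentrations for 48 h, and endpoints were estimated by linear interpolation. TGI denotes the concentration required for complete inhibition of growth.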

Assays:
Assay in all cases: inhibition of tumour cell growth, NCI panel, 48 h
[1] = system: UACC-62 melanoma
[2] = system: U251 CNS
[3] = system: SN12C renal
[4] = system: SK-MEL-5 melanoma
[5] = system: A549 NSCLC
[6] = system: NCI-H522 lung
[7] = system: HOP-92 NSCLC
[8] = system: HCC-2998 colon
[9] = system: CAKI-1 renal
[10] = system: UO-31 renal
[11] = system: SF-539 CNS
[12] = system: PC-3 prostate
[13] = system: OVCAR-3 ovarian
[14] = system: MDA-MB-231 breast
[15] = system: COLO 205 colon
[16] = system: SW-620 colon
[17] = system: SF-268 CNS
[18] = system: BT-549 breast

Structure (SMILES)	TGI [1]	TGI [2]	TGI [3]	TGI [4]	TGI [5]	TGI [6]	TGI [7]	TGI [8]	TGI [9]	TGI [10]	TGI [11]	TGI [12]	TGI [13]	TGI [14]	TGI [15]	TGI [16]	TGI [17]	TGI [18]
NCc1ccc(-c2ccc(CN)s2)s1	> 100 µM	> 100 µM	> 100 µM	> 100 µM	> 100 µM	> 100 µM	> 100 µM	> 100 µM	> 100 µM	> 100 µM	> 100 µM	> 100 µM	> 100 µM	> 100 µM	> 100 µM	> 100 µM	–	–
NC1C/C(=N\O)c2c(Cl)sc(Cl)c21 (centres undefined)	–	–	35 µM	–	> 100 µM	–	42.9 µM	> 100 µM	32.2 µM	34.3 µM	22.1 µM	48.8 µM	31.8 µM	–	61.4 µM	33.4 µM	> 100 µM	32.9 µM
O=C(CP(=O)(c1ccccc1)c1ccccc1)c1cccc(C(=O)CP(=O)(c2ccccc2)c2ccccc2)c1	> 100 µM	–	> 100 µM	> 100 µM	> 100 µM	–	–	> 100 µM	> 100 µM	> 100 µM	> 100 µM	> 100 µM	–	> 100 µM	> 100 µM	> 100 µM	> 100 µM	–
CC(=O)c1c(-c2ccc(Cl)cc2)c(-c2ccc(Cl)cc2)n[nH]c1=O	43.3 µM	> 100 µM	93.3 µM	> 100 µM	> 100 µM	–	> 100 µM	> 100 µM	> 100 µM	–	64.2 µM	> 100 µM	79.8 µM	86.4 µM	> 100 µM	> 100 µM	> 100 µM	–
O=C1c2ccccc2C(=O)C2NC(CCCCCSSCCCCCC3=NC4C(=O)c5ccccc5C(=O)C4N3)=NC12 (centres undefined)	–	> 100 µM	–	> 100 µM	–	> 100 µM	69.2 µM	–	> 100 µM	> 100 µM	> 100 µM	> 100 µM	> 100 µM	> 100 µM	–	> 100 µM	> 100 µM	–
Cc1ccc(S(=O)(=O)NC(=O)NCc2ccc(S(N)(=O)=O)cc2)cc1	> 100 µM	> 100 µM	–	> 100 µM	> 100 µM	> 100 µM	> 100 µM	> 100 µM	> 100 µM	> 100 µM	> 100 µM	> 100 µM	> 100 µM	> 100 µM	> 100 µM	> 100 µM	> 100 µM	–
C=C(C)C1CC=C(C)C(=O)C1 (centres undefined)	–	> 100 µM	> 100 µM	> 100 µM	> 100 µM	> 100 µM	> 100 µM	> 100 µM	> 100 µM	> 100 µM	> 100 µM	> 100 µM	> 100 µM	> 100 µM	> 100 µM	> 100 µM	> 100 µM	–
O=C(/C=C/c1cccc([N+](=O)[O-])c1)N1CCN(CCOC(c2ccccc2)c2ccccc2)CC1	> 100 µM	–	> 100 µM	28.2 µM	> 100 µM	> 100 µM	55.7 µM	55.2 µM	> 100 µM	> 100 µM	–	–	> 100 µM	–	91.9 µM	> 100 µM	–	> 100 µM
N=C1C(=N)c2ccccc2-c2ccccc21.[Cl-].[Ru+2].c1cnc2c(c1)ccc1cccnc12.c1cnc2c(c1)ccc1cccnc12	> 100 µM	73.9 µM	> 100 µM	34.4 µM	> 100 µM	54.7 µM	67.9 µM	> 100 µM	–	> 100 µM	57.8 µM	–	68.6 µM	–	–	41.4 µM	> 100 µM	–
CCCCCCCCCCCCCCCCP(=O)(O)OCC(N)C(=O)O (centres undefined)	> 100 µM	> 100 µM	> 100 µM	> 100 µM	> 100 µM	42.8 µM	48.2 µM	> 100 µM	56.2 µM	31.7 µM	72.3 µM	41.5 µM	79.3 µM	82.7 µM	> 100 µM	> 100 µM	74 µM	–
COC(=O)/C(C)=N/NC(=S)SC	–	> 100 µM	–	> 100 µM	–	81.8 µM	> 100 µM	> 100 µM	> 100 µM	> 100 µM	> 100 µM	> 100 µM	> 100 µM	> 100 µM	–	> 100 µM	> 100 µM	–
C1C2CC3CC1CC(c1nn4c(C56CC7CC(CC(C7)C5)C6)nnc4s1)(C2)C3	> 100 µM	> 100 µM	> 100 µM	> 100 µM	> 100 µM	> 100 µM	> 100 µM	> 100 µM	> 100 µM	> 100 µM	> 100 µM	> 100 µM	> 100 µM	> 100 µM	> 100 µM	> 100 µM	> 100 µM	–
CC12CCCC(C(=O)O)(C1)[C@H](C(C)(C)C(=O)O)CC2 (some centres undefined)	> 100 µM	> 100 µM	> 100 µM	> 100 µM	> 100 µM	> 100 µM	> 100 µM	–	> 100 µM	> 100 µM	–	> 100 µM	> 100 µM	–	> 100 µM	> 100 µM	> 100 µM	> 100 µM
